Results reported in publication PMC8623647 (Pharmaceuticals, 2021).
Several values for one entry are separate records, joined by “and”; a condition that tells them apart may be missing. Equal entries are not always repeated. Entries after “also recorded” stand apart in the source; their conditions may differ. Where two headings read alike, the source gives them in different places.

Experiments:
recombinant human MAO-A = target: T1, recombinant human MAO-A (Homo sapiens, UniProt P21397); test: MAO-A enzyme inhibition (kynuramine substrate, 316 nm); settings: for remaining activity at 10 µM: read-out: Residual Activity at 10 µM (%) MAO-A
T1 sequence (P21397 1-527): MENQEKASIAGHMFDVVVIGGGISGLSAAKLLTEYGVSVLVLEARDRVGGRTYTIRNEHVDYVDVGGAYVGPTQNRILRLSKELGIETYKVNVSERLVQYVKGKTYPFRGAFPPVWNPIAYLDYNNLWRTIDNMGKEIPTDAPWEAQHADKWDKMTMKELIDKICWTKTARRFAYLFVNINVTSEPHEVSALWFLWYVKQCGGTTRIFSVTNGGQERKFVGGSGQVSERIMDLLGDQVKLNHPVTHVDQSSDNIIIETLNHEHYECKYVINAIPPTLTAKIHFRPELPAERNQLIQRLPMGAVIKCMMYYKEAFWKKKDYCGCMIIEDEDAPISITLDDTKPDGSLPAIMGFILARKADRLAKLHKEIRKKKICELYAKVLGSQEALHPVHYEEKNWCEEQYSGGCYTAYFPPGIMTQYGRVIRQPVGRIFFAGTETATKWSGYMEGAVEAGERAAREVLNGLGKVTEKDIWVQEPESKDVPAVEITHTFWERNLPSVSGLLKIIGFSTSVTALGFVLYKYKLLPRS
Method: (§4) MAO activity assays were performed using recombinant human MAO-A or MAO-B.
(§5) IC50 values were determined by measuring residual enzyme activities.

MAO-B [1] = target: T2, MAO-B (Homo sapiens, UniProt P27338); test: MAO-B enzyme inhibition (benzylamine substrate, 250 nm); settings: for SI (hMAO-B selectivity index): IC50(hMAO-A) divided by IC50(hMAO-B); for remaining activity at 10 µM: read-out: Residual Activity at 10 µM (%) MAO-B; for Times more potent than the reference drug lazabemide (MAO-B) / Times more potent than pargyline (MAO-B): ratio of MAO-B IC50 values
T2 sequence (P27338 1-520): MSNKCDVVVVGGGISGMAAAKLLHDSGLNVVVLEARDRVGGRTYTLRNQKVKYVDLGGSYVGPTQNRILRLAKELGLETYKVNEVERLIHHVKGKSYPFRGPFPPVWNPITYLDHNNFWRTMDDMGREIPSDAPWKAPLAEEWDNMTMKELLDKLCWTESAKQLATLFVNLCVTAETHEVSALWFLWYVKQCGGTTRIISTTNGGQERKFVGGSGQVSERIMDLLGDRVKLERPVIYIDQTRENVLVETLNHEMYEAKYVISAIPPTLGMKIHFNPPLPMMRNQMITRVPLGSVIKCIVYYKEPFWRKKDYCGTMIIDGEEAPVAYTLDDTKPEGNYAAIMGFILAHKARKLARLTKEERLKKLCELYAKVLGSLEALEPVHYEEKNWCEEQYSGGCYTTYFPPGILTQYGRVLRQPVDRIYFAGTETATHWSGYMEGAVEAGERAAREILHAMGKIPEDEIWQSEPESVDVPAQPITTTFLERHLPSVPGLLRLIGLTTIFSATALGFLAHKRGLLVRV
Method: as §4, §5

[2] = BBB permeation by parallel artificial membrane permeability assay (PAMPA); type: in vitro ADME; settings: for Prediction (BBB permeation): PAMPA-BBB class from Pe; for Papp: PAMPA-BBB, read-out: Experimental Pe
From the text: The CNS bioavailability of the lead candidates was further ascertained by PAMPA method [31].

Vero cells [3] = test: Cytotoxicity by MTT assay; type: cell-based, African Green Monkey; settings: Chlorocebus sabaeus, Vero, 48 h, MTT assay, read-out: IC50 for Vero cell viability
Method: (§1) African Green Monkey kidney cells (VERO cells) were used to evaluate the cytotoxic effects of TM1 and TM8. Cells were incubated with different doses (1 µg/mL to 500 µg/mL) of the two compounds for 48 h, and relative cell viabilities were determined by MTT assay.
(§2) The cytotoxicities and ROS quenching abilities of the two lead compounds (TM1 and TM8) were evaluated as previously described.
(§3) Figure 4 Effect of TM1 on Vero cell viability. (a) cell viability treated with TM1; (b) dose-response curve; (c) phase contrast microscope images of Vero cells treated with different concentrations of TM1. Cells were treated with TM1 for 48 h and cell viabilities were assessed by MTT assay as described in Section 4.
as §3, with “Figure 5” for “Figure 4”, “of TM8” for “of TM1”, “with TM8;” for “with TM1;”, “of TM8.” for “of TM1.”, “with TM8” for “with TM1”

[4] = Cytotoxicity by MTT assay; type: cell-based, African Green Monkey; settings: African green monkey, Vero cells (kidney); Vero cells treated at effective concentrations; read-out: Cells remaining viable
Method: as §1, §2, §3
as §3, with “Figure 5” for “Figure 4”, “of TM8” for “of TM1”, “with TM8;” for “with TM1;”, “of TM8.” for “of TM1.”, “with TM8” for “with TM1”

Vero cells [5] = test: ROS assay (H2O2-induced ROS levels); type: cell-based, African Green Monkey; settings: compound at its IC50 value, exogenous H2O2
Method: ROS increase vulnerability to neuronal damage by causing oxidative damage in the brain during neurodegenerative diseases.
as §2
Figure 6 Effects of TM1 (a) and TM8 (b) on H2O2-induced ROS levels. Vero cells (1 × 10^6 cells/mL) were pre-incubated with 100 μg/mL of 30% H2O2 and ROS production was evaluated immediately as described in Section 4.

MAO-B [6] = target: T2, MAO-B; test: Reversibility of MAO-B inhibition by dialysis; type: biochemical
Method: The reversibilities of MAO-B inhibitions by TM1 and TM8 were assessed by dialysis. […] Reversibility patterns were determined by comparing the activities of dialyzed (AD) and undialyzed (AU) samples.

Row | Compound | IC50 (recombinant human MAO-A) [µM] | remaining activity at 10 µM (recombinant human MAO-A) [%] | IC50 (MAO-B [1]) [µM] | SI (hMAO-B selectivity index) (MAO-B [1]) | remaining activity at 10 µM (MAO-B [1]) [%] | Times more potent than the reference drug lazabemide (MAO-B) (MAO-B [1]) [times] | Prediction (BBB permeation) [2] | Papp [2] [×10⁻⁶ cm/s] | Times more potent than pargyline (MAO-B) (MAO-B [1]) | Blood-brain barrier permeability in words ([2]; PAMPA) | IC50 (Vero cells [3]; converted from µg/mL) [µM] | IC50 (Vero cells [3]) [µg/mL] | viability at 48 h [4] [%] | Effect on H2O2-induced intracellular ROS levels (Vero cells [5]) | MAO-B activity of dialyzed sample (AD) (MAO-B [6]; after dialysis, test compounds […], lazabemide 0.20 µM, pargyline 0.30 µM) [%] | Reversibility of MAO-B inhibition (MAO-B [6]; dialysis-based method) | MAO-B activity of undialyzed sample (AU) (MAO-B [6]; preincubated 30 min, test compounds […], lazabemide 0.20 µM, pargyline 0.30 µM) [%]
1 | COc1ccc(/C=C/C(=O)c2ccc(SC)cc2)cc1 [TM3] | 8.82 ± 0.09 | 44.6 ± 1.9 | 0.088 ± 0.011 | 100.2 | 6.9 | – | – | – | – | – | – | – | – | – | – | – | –
2 | CSc1ccc(C(=O)/C=C/c2ccc(C)cc2)cc1 [TM4] | 12 ± 0.99 | 71.6 ± 3.8 | 0.058 ± 0.001 | 206.9 | 14.7 ± 2.8 | 1.1 | – | – | – | – | – | – | – | – | – | – | –
3 | CSc1ccc(C(=O)/C=C/c2ccc(N(C)C)cc2)cc1 [TM5] | 5.91 ± 0.87 | 47.9 ± 3.7 | 0.12 ± 0.011 | 49.3 | 1.6 ± 1.1 | – | – | – | – | – | – | – | – | – | – | – | –
4 | CCc1ccc(/C=C/C(=O)c2ccc(SC)cc2)cc1 [TM6] | 6.71 ± 0.75 | 49.4 ± 8.7 | 0.13 ± 0.005 | 51.6 | -9.5 | – | – | – | – | – | – | – | – | – | – | – | –
5 | CSc1ccc(C(=O)/C=C/c2ccc([N+](=O)[O-])cc2)cc1 [TM7] | 30 ± 3.02 | 66.1 ± 2.6 | 0.023 ± 0.001 | 1304 and 1304.3 | 6 ± 1.9 | 2.7 | CNS+ (CNS+ (high BBB permeation predicted): Pe (10^−6 cm·s^−1) > 4.00) | 15.5 ± 0.71 | almost as potent as pargyline | – | – | – | – | – | – | – | –
6 | CSc1ccc(C(=O)/C=C/c2ccc(Cl)cc2)cc1 [TM8] | 48.6 ± 3.44 | 77.4 ± 8.2 | 0.01 ± 0.005 | – | 4.1 ± 0.5 | 6.3 | CNS+ (CNS+ (high BBB permeation predicted): Pe (10^−6 cm·s^−1) > 4.00) | 16.3 ± 0.26 | 2.8 times | high blood-brain barrier permeabilities | 402 | 116 | > 90 | significantly reduced reactive oxygen species (ROS) levels; also recorded: appreciably lower ROS levels; also recorded: mitigated H2O2-induced increases in ROS levels | 69.3 | reversible MAO-B inhibitors | 33.1
7 | CSc1ccc(C(=O)/C=C/c2ccc(Br)cc2)cc1 [TM9] | 33.6 ± 2.56 | 74.7 | 0.088 ± 0.006 | 381.8 | 7.5 ± 2.1 | – | – | – | – | – | – | – | – | – | – | – | –
8 | CSc1ccc(C(=O)/C=C/c2ccc(F)cc2)cc1 [TM10] | 13.7 ± 1.22 | 57.9 ± 6 | 0.026 ± 0.004 | 526.9 | -0.4 ± 2.7 | 2.4 | CNS+ (CNS+ (high BBB permeation predicted): Pe (10^−6 cm·s^−1) > 4.00) | 15.2 ± 0.44 | almost as potent as pargyline | – | – | – | – | – | – | – | –
9 | CSc1ccc(C(=O)/C=C/c2ccc(C(F)(F)F)cc2)cc1 [TM11] | 25.2 ± 0.14 | 79.5 ± 0.7 | 0.081 ± 0.032 | 311.1 | 7.4 ± 1.2 | – | – | – | – | – | – | – | – | – | – | – | –
